# Measured values taken from PMC8205226, “HIV-1 Integrase Inhibitors with Modifications That Affect Their Potencies against Drug Resistant Integrase Mutants” (ACS Infectious Diseases, 2021).
# Key:
# Type in all cases: cell-based
# [1] = test system: HIV-1 IN mutant P142H; test: single-round infectivity assay, P142H IN mutant
# Description: (§1) The EC50 values were determined using a vector that carries the IN mutant in a single round infection assay. […] Error bars represent the standard deviations of independent experiments, n = 4, performed in triplicate.
# Single round infectivity measurements were determined as done previously.[38]
# (§2) The vector pNLNgoMIVR-ΔENV.LUC has been described previously.[26] To produce the new IN mutants used in this study, the IN open reading frame was removed from pNLNgoMIVR-ΔENV.LUC by digestion with KpnI and SalI, and the resulting fragment was inserted between the KpnI and SalI sites of pBluescript KS+. Using that construct as the wild-type template, we prepared the following HIV-1 IN mutants using the QuikChange II XL site directed mutagenesis kit (Agilent Technologies, Santa Clara, CA) protocol: N117A, N117H, P142A, P142H, P142S, Y143C, Y143H, S230R, R231G, and R231K. The following sense oligonucleotides were used with matching cognate antisense oligonucleotides (not shown) (Integrated DNA Technologies, Coralville, IA) in the mutagenesis: N117A, 5′-[…]-3′; N117H, 5′-[…]-3′; P142A, 5′-[…]-3′; P142H, 5′-[…]-3′; P142S, 5′-[…]-3′; Y143C, 5′- […]-3′; Y143H, 5′-[…]-3′; S230R, 5′- […]-3′; R231G, 5′-[…]-3′; R231K, 5′-[…]-3′.
# [2] = test system: HIV-1 IN mutant R231K; test: single-round infectivity assay, R231K IN mutant
# Description: as §1, with “Figure 5 Antiviral potencies of the new compounds against IN with mutations in the […]. The” for “The”
# (§3) WT and mutant HIV-1 viral vectors were used in single-round infectivity assays to determine the antiviral potencies (EC50 values) of the compounds and the effects of the mutants on the EC50 values as previously described.[30],[54] Single round infectivity measurements were determined as done previously.[38]
# as §2
# [3] = test system: WT HIV-1; test: single-round infectivity assay, WT HIV-1 IN vector; conditions: Human immunodeficiency virus 1, read-out: EC50 values WT, vector carrying WT HIV-1 IN, single round infection, n = 4; new compounds
# Description: (§4) Figure 2 Antiviral activities of the new compounds against RAL-resistant mutants. The EC50 values were determined using a vector that carries WT HIV-1 IN and the RAL-resistant mutants in a single round infection assay. […] Error bars represent the standard deviations of independent experiments, n = 4, performed in triplicate. The graph has a maximum value of 550 nM.
# as §3, §2
# [4] = test system: HIV-1 IN mutant N117A; test: single-round infectivity assay, N117A IN mutant
# Description: as §1, §3, §2
# [5] = test system: HIV-1 IN double mutant G140S/Q148H; test: single-round infectivity assay, G140S/Q148H IN double mutant
# Description: as §4, §3, §2
# [6] = test system: HIV-1 IN mutant P142A; test: single-round infectivity assay, P142A IN mutant
# Description: as §1, with “Figure 4 Mutations in the β5-α3 loop affect the antiviral potencies of the new compounds. The” for “The”
# as §3, §2
# [7] = test system: HIV-1 IN mutant P142S; test: single-round infectivity assay, P142S IN mutant
# Description: as §1, with “Figure 4 Mutations in the β5-α3 loop affect the antiviral potencies of the new compounds. The” for “The”
# as §3, §2
# [8] = test system: HIV-1 IN mutant N117H; test: single-round infectivity assay, N117H IN mutant
# Description: as §1, §3, §2
# [9] = test system: HIV-1 IN mutant G118R; test: single-round infectivity assay, G118R IN mutant
# Description: as §1, §3, §2
# [10] = test system: HIV-1 IN mutant S119R; test: single-round infectivity assay, S119R IN mutant
# Description: as §1, §3, §2
# [11] = test system: HIV-1 IN mutant S230R; test: single-round infectivity assay, S230R IN mutant
# Description: as §1, with “Figure 5 Antiviral potencies of the new compounds against IN with mutations in the […]. The” for “The”
# as §3, §2
# [12] = test system: HIV-1 IN mutant N155H; test: single-round infectivity assay, N155H IN mutant
# Description: as §4, §3, §2
# [13] = test system: HIV-1 IN mutant Y143H; test: single-round infectivity assay, Y143H IN mutant; conditions: EC50 compound / EC50 DTG
# Description: as §1, with “Figure 4 Mutations in the β5-α3 loop affect the antiviral potencies of the new compounds. The” for “The”
# as §3, §2
# [14] = test system: HIV-1 IN mutant Y143R; test: single-round infectivity assay, Y143R IN mutant
# Description: as §4, §3, §2
# [15] = test system: HIV-1 IN mutant R231G; test: single-round infectivity assay, R231G IN mutant
# Description: as §1, with “Figure 5 Antiviral potencies of the new compounds against IN with mutations in the […]. The” for “The”
# as §3, §2
# [16] = test system: HIV-1 IN mutant Y143C; test: single-round infectivity assay, Y143C IN mutant; conditions: EC50 compound / EC50 DTG
# Description: as §1, with “Figure 4 Mutations in the β5-α3 loop affect the antiviral potencies of the new compounds. The” for “The”
# as §3, §2
# [17] = fold change in EC50, IN mutant versus WT HIV-1
smiles,measurement,setting,value
"CS(=O)(=O)CCc1cnc2c(c1)c(N)c(C(=O)NCc1ccc(F)cc1F)c(=O)n2O [6u, 4-Amino-N-(2,4-difluorobenzyl)-1-hydroxy-6-(2-(methylsulfonyl)ethyl)-2-oxo-1,2-dihydro-1,8-naphthyridine-3-carboxamide]",ratio of the EC50s (our compound relative to DTG) against P142H,[1]; EC50 compound / EC50 DTG,16.1
same,EC50,"[1]; Human immunodeficiency virus 1, read-out: EC50 values P142H",45.1 ± 5.2 nM
same,ratio of the EC50s (our compound relative to DTG) against R231K,[2]; EC50 compound / EC50 DTG,18.7
same,EC50,"[2]; Human immunodeficiency virus 1, read-out: EC50 values R231K, single round infection, n = 4",78.4 ± 9.9 nM
same,FC R231K,[2]; [17],2.9
same,EC50,[3],27 ± 3.2 nM
same,ratio of the EC50s (our compound relative to DTG) against N117A,[4]; EC50 compound / EC50 DTG,30.0
same,EC50,"[4]; Human immunodeficiency virus 1, read-out: EC50 values N117A",15 nM
same,FC N117A,[4]; [17],0.6
same,ratio of the EC50s (our compound relative to DTG) against G140S/Q148H,[5]; EC50 compound / EC50 DTG,20.3
same,EC50,"[5]; Human immunodeficiency virus 1, read-out: EC50 values G140S/Q148H",118 ± 31.3 nM
same,FC G140S/Q148H,[5]; [17],4.4
same,ratio of the EC50s (our compound relative to DTG) against P142A,[6]; EC50 compound / EC50 DTG,20.3
same,EC50,"[6]; Human immunodeficiency virus 1, read-out: EC50 values P142A",50.8 ± 6.4 nM
same,ratio of the EC50s (our compound relative to DTG) against P142S,[7]; EC50 compound / EC50 DTG,23.4
same,EC50,"[7]; Human immunodeficiency virus 1, read-out: EC50 values P142S",51.5 ± 2.4 nM
same,ratio of the EC50s (our compound relative to DTG) against N117H,[8]; EC50 compound / EC50 DTG,24.3
same,EC50,"[8]; Human immunodeficiency virus 1, read-out: EC50 values N117H",58.3 ± 5.9 nM
same,FC N117H,[8]; [17],2.2
same,ratio of the EC50s (our compound relative to DTG) against G118R,[9]; EC50 compound / EC50 DTG,16.5
same,EC50,"[9]; Human immunodeficiency virus 1, read-out: EC50 values G118R",214 ± 26.3 nM
same,FC G118R,[9]; [17],7.9
same,ratio of the EC50s (our compound relative to DTG) against S119R,[10]; EC50 compound / EC50 DTG,24.5
same,EC50,"[10]; Human immunodeficiency virus 1, read-out: EC50 values S119R",56.4 ± 11 nM
same,FC S119R,[10]; [17],2.1
same,ratio of the EC50s (our compound relative to DTG) against S230R,[11]; EC50 compound / EC50 DTG,19.1
same,EC50,"[11]; Human immunodeficiency virus 1, read-out: EC50 values S230R",88 ± 14.5 nM
same,FC S230R,[11]; [17],3.3
same,ratio of the EC50s (our compound relative to DTG) against N155H,[12]; EC50 compound / EC50 DTG,9.1
same,EC50,"[12]; Human immunodeficiency virus 1, read-out: EC50 values N155H",32.8 ± 6 nM
same,FC N155H,[12]; [17],1.2
same,ratio of the EC50s (our compound relative to DTG) against Y143H,[13],17.0
same,ratio of the EC50s (our compound relative to DTG) against Y143R,[14]; EC50 compound / EC50 DTG,6.4
same,EC50,"[14]; Human immunodeficiency virus 1, read-out: EC50 values Y143R",27.5 ± 0.4 nM
same,FC Y143R,[14]; [17],1.0
same,ratio of the EC50s (our compound relative to DTG) against R231G,[15]; EC50 compound / EC50 DTG,22.5
same,EC50,"[15]; Human immunodeficiency virus 1, read-out: EC50 values R231G",31.5 ± 4 nM
same,FC R231G,[15]; [17],1.2
same,ratio of the EC50s (our compound relative to DTG) against Y143C,[16],31.4
